Activity calls are given as the source filed them.
Legend:
[1] = molecular target: T1, E3 ubiquitin-protein ligase XIAP (Homo sapiens, UniProt P98170); test: Counter Screen using XIAP-Bir3 for Chemical Antagonists of Bir1/2 domains of IAP-family anti-apoptotic proteins. [Related pubchem assays (depositor defined):AID1018, AID1449, AID1514, AID1638, AID1749, AID1750, AID488957, AID488963]
[2] = molecular target: T1, E3 ubiquitin-protein ligase XIAP; test: small molecules displacing peptide from XIAP – biochemical, IAP family, fluorescence polarization (AID 1018); format: functional
Nonstructural protein 1 = Nonstructural protein 1 (Influenza A virus, UniProt Q194T2); format: functional, Influenza A virus (A/California/07/2009(H1N1))
H9c2 = test: cells; format: functional, cell-based; details: Rattus norvegicus, H9c2, Myocardium;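 further: confirmatory concentration-response retest of ultra-high-throughput screening hits for modulation of myocardial damage; cell death induced by hydrogen peroxide oxidative stress; compound pretreatment for 60 min then peroxide exposure for 2 h; potency is for protecting the cells against peroxide damage rather than for killing them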
Cytochrome P450 2C19 = Cytochrome P450 2C19 (Homo sapiens, UniProt P33261); test: Cytochrome panel assay with activity outcomes. Panel member name: p450-cyp2c19 Compounds with AC50 equal or less than 10 uM are considered active; format: functional
Cytochrome P450 2D6 = Cytochrome P450 2D6 (Homo sapiens, UniProt P10635);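 further: CYP2D6 member of a cytochrome P450 panel assay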
Cytochrome P450 3A4 = Cytochrome P450 3A4 (Homo sapiens, UniProt P08684);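 further: CYP3A4 tested as one member of a cytochrome P450 panel screen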
Cytochrome P450 2C9 = Cytochrome P450 2C9 (Homo sapiens, UniProt P11712)
HEK293 [3] = test: cells; format: functional, cell-based; details: Homo sapiens
HEK293 [4] = test: cells; format: functional, cell-based; details: Homo sapiens; remark: listed apart in the source
[5] = Luminescence Cell-Based Dose Retest to Confirm Inhibitors of Cancer Stem Cells. [Related pubchem assays (depositor defined):AID2717, AID2721]; format: functional; details: Homo sapiens
[6] = molecular target: Nucleotide-binding oligomerization domain-containing protein 2 (Homo sapiens, UniProt Q9HC29); test: inhibition of NOD2-driven NF-kB reporter – cell-based, luminescence, uHTS, HEK293 (AID 1566); format: functional
[7] = system: Streptococcus sp. 'group A'; test: Streptococcus pyogenes SK(-)GAS viability under kanamycin – luminescence, BacTiterGlo, confirmation, counter-screen for streptokinase expression inhibitor project, dose response (AID 1900); format: functional, organism-based
[8] = molecular target: Disintegrin and metalloproteinase domain-containing protein 17 (Homo sapiens, UniProt P78536); test: inhibition of ADAM17 substrate cleavage – biochemical, quenched FRET substrate, counter-screen for ADAM10 exosite inhibitor project, dose response (AID 743253)
HEK293 [9] = test: cells; format: functional, cell-based; details: Homo sapiens; remark: listed apart in the source
Streptokinase A = molecular target: T2, Streptokinase A (Streptococcus pyogenes serotype M1, UniProt P10520); test: viability-normalized secreted streptokinase activity reduction – plasminogen activation absorbance, OD405, dose response (AID 1914); format: functional, Streptococcus pyogenes M1 GAS;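 further: secreted streptokinase activity via plasminogen activation per viability signal from cell pellet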
T2 sequence (P10520 whole entry): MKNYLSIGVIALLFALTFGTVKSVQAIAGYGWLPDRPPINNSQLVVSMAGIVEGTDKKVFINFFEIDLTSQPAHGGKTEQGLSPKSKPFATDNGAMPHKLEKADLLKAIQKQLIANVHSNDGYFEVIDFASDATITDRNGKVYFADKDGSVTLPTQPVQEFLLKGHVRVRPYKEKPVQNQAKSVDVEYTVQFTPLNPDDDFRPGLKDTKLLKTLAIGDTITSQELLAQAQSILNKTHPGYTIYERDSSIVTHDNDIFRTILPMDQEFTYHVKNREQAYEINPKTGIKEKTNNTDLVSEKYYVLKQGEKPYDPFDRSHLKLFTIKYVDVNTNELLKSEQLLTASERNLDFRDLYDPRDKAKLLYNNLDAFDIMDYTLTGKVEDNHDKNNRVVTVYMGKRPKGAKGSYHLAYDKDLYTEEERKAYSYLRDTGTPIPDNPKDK

HEK293 [10] = test: inhibition of NOD1-driven NF-kB reporter – cell-based, luminescence, uHTS, primary screen (AID 1578); format: functional; details: Homo sapiens
Streptococcus = test: GAS UMAA2166 growth inhibition – luminescence, BacTiterGlo, counter-screen for streptokinase expression inhibitor project, dose response (AID 1915); format: functional, organism-based;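 further: potency for reduction of bacterial viability or growth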
HEK293 [11] = test: NOD2 signaling inhibitors in MDP-stimulated cells, cell-based, uHTS, luminescence (AID 2001); format: functional; details: Homo sapiens

T1 sequence (P98170 whole entry): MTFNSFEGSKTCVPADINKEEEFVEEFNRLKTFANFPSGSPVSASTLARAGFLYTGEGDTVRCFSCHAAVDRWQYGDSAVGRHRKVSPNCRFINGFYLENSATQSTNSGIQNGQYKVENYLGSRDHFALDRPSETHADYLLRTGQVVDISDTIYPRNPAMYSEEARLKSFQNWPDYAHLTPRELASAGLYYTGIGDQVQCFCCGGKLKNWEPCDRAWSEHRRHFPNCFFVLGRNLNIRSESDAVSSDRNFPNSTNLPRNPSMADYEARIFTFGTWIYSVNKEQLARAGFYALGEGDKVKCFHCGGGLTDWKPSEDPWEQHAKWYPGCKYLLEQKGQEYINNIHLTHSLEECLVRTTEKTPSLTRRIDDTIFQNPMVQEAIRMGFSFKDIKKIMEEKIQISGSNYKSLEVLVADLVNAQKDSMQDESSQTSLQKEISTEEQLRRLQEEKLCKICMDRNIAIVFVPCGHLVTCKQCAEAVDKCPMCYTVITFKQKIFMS
Cytochrome P450 3A4, sequence (P08684 whole entry): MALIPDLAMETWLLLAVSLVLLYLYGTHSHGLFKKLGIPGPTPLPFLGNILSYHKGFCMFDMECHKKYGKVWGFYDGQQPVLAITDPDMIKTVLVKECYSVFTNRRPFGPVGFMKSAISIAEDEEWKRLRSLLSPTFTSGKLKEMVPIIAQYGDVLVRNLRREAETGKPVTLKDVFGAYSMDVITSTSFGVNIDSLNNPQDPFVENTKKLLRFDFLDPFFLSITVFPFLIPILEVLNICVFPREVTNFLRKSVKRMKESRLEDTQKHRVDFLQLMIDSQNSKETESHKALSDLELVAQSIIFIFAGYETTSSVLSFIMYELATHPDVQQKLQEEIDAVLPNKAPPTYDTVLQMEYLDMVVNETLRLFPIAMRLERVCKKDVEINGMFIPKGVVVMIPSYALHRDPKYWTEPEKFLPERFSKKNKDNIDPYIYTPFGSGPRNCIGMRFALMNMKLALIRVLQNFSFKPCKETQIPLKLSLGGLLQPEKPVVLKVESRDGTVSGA
Disintegrin and metalloproteinase domain-containing protein 17, sequence (P78536 whole entry, the tested form may be a part): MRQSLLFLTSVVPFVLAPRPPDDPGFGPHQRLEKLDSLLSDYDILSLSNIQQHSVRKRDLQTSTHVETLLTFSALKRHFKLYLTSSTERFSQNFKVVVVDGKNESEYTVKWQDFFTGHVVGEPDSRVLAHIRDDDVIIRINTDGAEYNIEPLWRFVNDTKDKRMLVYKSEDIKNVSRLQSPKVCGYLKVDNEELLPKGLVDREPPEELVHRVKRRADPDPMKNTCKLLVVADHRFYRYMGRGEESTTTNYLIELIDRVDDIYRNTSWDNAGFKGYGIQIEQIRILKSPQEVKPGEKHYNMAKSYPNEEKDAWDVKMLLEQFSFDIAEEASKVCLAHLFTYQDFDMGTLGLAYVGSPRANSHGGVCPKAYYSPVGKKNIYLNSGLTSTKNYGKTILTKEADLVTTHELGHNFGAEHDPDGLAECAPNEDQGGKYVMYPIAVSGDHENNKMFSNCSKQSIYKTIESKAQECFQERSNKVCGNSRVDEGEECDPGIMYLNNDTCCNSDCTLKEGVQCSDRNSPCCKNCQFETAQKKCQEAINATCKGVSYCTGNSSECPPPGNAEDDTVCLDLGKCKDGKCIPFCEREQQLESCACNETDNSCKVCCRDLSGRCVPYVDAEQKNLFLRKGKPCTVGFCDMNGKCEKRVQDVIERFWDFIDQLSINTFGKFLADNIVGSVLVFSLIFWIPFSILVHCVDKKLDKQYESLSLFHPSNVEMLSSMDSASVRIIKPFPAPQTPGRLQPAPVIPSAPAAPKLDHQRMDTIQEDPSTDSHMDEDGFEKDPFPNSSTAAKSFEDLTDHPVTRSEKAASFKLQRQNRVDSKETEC
Cytochrome P450 2D6, sequence (P10635 whole entry): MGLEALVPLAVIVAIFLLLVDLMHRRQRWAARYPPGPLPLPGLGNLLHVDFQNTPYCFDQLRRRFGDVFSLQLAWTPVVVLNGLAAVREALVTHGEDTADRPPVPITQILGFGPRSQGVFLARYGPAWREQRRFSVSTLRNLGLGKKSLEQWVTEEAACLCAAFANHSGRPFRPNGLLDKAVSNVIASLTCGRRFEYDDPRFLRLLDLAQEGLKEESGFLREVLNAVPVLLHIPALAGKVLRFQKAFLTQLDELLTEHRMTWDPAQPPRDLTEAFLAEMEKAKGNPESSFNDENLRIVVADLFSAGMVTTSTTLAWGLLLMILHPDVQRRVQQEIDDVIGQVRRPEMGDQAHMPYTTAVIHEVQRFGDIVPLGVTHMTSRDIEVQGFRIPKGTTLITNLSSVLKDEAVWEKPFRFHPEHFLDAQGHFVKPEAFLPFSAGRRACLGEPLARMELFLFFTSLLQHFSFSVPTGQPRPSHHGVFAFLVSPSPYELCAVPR
Cytochrome P450 2C19, sequence (P33261 whole entry): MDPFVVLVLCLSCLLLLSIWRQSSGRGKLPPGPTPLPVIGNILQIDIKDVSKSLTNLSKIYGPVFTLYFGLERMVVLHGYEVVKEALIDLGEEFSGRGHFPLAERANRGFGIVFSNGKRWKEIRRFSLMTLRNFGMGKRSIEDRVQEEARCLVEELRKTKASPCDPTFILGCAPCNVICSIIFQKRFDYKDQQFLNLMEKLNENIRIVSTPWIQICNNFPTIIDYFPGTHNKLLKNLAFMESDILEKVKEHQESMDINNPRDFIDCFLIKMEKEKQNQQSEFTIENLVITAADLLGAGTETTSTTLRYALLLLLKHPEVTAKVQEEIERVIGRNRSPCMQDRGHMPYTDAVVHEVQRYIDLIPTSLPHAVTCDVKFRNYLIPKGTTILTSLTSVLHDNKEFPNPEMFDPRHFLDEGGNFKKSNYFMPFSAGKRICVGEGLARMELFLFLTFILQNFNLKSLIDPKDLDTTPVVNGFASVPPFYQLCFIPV
Cytochrome P450 2C9, sequence (P11712 whole entry): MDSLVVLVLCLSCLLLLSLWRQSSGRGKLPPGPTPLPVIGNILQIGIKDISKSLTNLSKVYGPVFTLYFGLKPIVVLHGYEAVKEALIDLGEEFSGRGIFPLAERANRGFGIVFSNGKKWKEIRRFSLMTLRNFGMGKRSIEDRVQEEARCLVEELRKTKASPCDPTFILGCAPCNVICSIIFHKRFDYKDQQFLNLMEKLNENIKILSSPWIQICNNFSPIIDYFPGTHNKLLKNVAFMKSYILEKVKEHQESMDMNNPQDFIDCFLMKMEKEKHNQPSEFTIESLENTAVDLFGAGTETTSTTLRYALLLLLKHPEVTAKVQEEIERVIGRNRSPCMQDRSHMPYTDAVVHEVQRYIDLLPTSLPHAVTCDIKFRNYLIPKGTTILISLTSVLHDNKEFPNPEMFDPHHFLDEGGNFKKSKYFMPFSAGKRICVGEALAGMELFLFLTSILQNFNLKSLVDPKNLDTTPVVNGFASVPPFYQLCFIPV
Nonstructural protein 1, sequence (Q194T2 whole entry): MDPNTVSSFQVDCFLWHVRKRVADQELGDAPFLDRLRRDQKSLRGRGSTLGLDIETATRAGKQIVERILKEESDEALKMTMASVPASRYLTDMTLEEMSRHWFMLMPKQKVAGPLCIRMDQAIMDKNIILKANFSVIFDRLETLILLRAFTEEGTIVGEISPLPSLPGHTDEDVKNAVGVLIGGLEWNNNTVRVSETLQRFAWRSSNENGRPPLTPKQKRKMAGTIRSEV
Nucleotide-binding oligomerization domain-containing protein 2, sequence (Q9HC29 whole entry, the tested form may be a part): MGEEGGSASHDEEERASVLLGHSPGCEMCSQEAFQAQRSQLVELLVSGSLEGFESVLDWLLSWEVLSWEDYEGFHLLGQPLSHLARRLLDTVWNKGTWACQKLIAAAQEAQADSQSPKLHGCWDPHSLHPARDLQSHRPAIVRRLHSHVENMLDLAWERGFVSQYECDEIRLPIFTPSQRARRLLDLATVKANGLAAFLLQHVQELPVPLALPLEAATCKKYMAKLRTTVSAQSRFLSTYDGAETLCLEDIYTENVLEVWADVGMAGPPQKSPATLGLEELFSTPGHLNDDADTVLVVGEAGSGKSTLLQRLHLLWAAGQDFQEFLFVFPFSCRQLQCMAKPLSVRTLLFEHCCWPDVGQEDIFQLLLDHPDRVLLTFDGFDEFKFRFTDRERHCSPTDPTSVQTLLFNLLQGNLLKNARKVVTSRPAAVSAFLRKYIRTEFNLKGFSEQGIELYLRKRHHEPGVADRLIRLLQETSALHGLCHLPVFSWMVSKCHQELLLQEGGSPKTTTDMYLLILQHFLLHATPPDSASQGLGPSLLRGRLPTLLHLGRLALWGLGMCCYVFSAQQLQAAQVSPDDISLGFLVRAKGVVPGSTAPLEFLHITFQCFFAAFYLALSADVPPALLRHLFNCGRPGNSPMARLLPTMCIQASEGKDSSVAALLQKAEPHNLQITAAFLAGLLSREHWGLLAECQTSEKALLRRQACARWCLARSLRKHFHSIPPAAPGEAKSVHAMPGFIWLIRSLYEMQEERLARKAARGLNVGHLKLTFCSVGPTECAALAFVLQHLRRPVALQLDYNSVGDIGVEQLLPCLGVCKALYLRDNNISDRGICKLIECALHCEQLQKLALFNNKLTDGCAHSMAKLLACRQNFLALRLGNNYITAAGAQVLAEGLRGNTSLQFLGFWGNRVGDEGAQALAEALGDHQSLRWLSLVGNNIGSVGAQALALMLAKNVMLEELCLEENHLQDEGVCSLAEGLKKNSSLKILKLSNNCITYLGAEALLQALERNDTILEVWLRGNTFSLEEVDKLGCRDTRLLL

Structure (SMILES): O=C(CN1C(=O)CCC1=O)Nc1nc(-c2ccccn2)cs1
- IC50 [1]: > 100 µM (inactive)
- IC50 [2]: > 100 µM (not active)
- IC50 (Nonstructural protein 1): 4.83 µM (active)
- IC50 (H9c2): 33.4 µM (inactive)

Structure (SMILES): O=C(COC(=O)C(Cc1ccccc1)NC(=O)c1ccco1)NC1CC1 (centres undefined)
- IC50 [1]: > 100 µM (inactive)
- IC50 [2]: > 100 µM (not active)

Structure (SMILES): Cc1ccc(NC(=O)NNC(=O)C2CC(c3cccnc3)=NO2)cc1 (centres undefined)
- AC50 (Cytochrome P450 2C19): inconclusive
- AC50 (Cytochrome P450 2D6): inconclusive

Structure (SMILES): O=C(c1cccc(F)c1)N1CCC2(CCN(Cc3nccs3)CC2)CC1
- AC50 (Cytochrome P450 3A4): inconclusive

Structure (SMILES): CSc1nc2nc3c(c(O)n2n1)CN(Cc1ccccc1)CC3
- AC50 (Cytochrome P450 3A4): inconclusive
- AC50 (Cytochrome P450 2C9): 15.8 µM (inconclusive)

Structure (SMILES): CCOC(=O)N1CCC(=NNC(=O)c2ccccc2F)CC1
- IC50 [1]: > 100 µM (inactive)
- IC50 [2]: > 100 µM (not active)

Structure (SMILES): COc1ccc(-c2c[nH]nc2-c2ccc(OCc3ccccc3)cc2O)cc1
- IC50 (HEK293 [3]): > 20 µM (inactive)
- IC50 (HEK293 [4]): > 20 µM (inactive)
- AC50 [5]: 6.84 µM (active)
- EC50 [6]: 2.22 µM (active)
- EC50 [7]: 2.68 µM (active)
- IC50 [8]: > 69.5 µM (inactive)
- IC50 (HEK293 [9]): 1.84 µM (active)
- EC50 (Streptokinase A): > 150 µM (inconclusive)
- EC50 (HEK293 [10]): 12.2 µM (active)
- EC50 (Streptococcus): 17.7 µM (active)
- IC50 (HEK293 [11]): 3.21 µM (active)

Reference: ChEMBL document CHEMBL1201862, “PubChem BioAssay data set” (2004)
